Test results published in ChEMBL document CHEMBL1201862, “PubChem BioAssay data set” (2004).
Calls of active or inactive are those of the source.

How the values were obtained:
[1] = viability of uninfected HEp-2 cells – cell-based, HTS, cytotoxicity control for RSV inhibitor project, dose response (AID 2410); assay type: functional; details: human respiratory syncytial virus
[2] = cells
[3] = molecular target: Heat shock protein HSP 90-alpha (Homo sapiens, UniProt P07900); assay type: functional, organism-based
[4] = molecular target: T1, Polyadenylate-binding protein 1 (Homo sapiens, UniProt P11940); assay: MLLE binding blockers, Cy5 peptide tracer – biochemical, fluorescence polarization, Cy5-PAM2 peptide, secondary, miRNA deadenylation inhibitor project, dose response (AID 602260); assay type: functional; details: read-out: IC50_Mean
T1 sequence (P11940 whole entry, the tested form may be a part): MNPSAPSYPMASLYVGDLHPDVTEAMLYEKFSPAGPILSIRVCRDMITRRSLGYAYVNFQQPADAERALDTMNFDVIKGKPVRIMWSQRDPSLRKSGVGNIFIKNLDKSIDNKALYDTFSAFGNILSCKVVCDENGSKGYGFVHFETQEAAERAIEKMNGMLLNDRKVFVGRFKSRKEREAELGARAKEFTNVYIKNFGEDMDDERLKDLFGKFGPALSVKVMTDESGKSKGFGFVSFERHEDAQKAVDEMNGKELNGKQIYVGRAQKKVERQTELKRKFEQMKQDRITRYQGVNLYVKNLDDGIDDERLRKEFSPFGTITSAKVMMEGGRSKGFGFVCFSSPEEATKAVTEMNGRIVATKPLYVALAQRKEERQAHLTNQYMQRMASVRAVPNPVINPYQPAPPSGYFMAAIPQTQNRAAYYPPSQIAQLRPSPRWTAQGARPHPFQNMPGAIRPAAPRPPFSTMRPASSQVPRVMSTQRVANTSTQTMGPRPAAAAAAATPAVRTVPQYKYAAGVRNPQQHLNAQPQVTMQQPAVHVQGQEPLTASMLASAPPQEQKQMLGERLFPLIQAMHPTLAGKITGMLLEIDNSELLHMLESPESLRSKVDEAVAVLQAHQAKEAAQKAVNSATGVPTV

[5] = molecular target: T1, Polyadenylate-binding protein 1; assay: MLLE domain peptide-binding blockers, IC50 – biochemical, fluorescence polarization, FITC-PAM2 peptide, dose response (AID 602259); assay type: functional; details: read-out: IC50_Mean
[6] = viability of HCT116 lacking mutant beta-catenin – cell-based, human colon tumor, dose response (AID 1045); assay type: functional;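 note: HCT116 colon tumor cells with beta catenin knocked out; cells exposed to compound for 60 hours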
[7] = Trypanosoma cruzi growth suppression in host cells – NIH3T3 host cells, beta-gal luminescence, confirmation (AID 2044); assay type: functional, cell-based;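 note: intracellular parasites grown in NIH/3T3 mouse fibroblasts as host cells; luminescent beta-galactosidase reporter signal from transgenic T. cruzi replicating inside host cells; inhibitors lower the luminescence signal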
[8] = NIH3T3 cell viability loss – ATP luminescence, mouse fibroblasts, counter-screen, dose response (AID 2010); assay type: functional, cell-based;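 note: cells exposed to compound for about 90 hours before reading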
[9] = viability of PTEN-deleted HCT116 cells – cell-based, HCT116 PTEN knockout, dose response (AID 1047); assay type: functional;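 note: HCT116 colon tumor cells with PTEN knocked out; cells exposed to compound for 60 hours before readout; potency for loss of cell viability measured by luminescence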
[10] = alpha-synuclein stem-loop translation blockers – luminescence, H4 neuroglioblastoma cells, dose confirmation, confirmation (AID 2454); assay type: functional, cell-based;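 note: H4 neuroglioblastoma cells carrying an alpha-synuclein 5'UTR luciferase reporter; potency for inhibition of the luciferase signal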
[11] = Luminescence Cell-Based Dose Response HTS to Identify Inhibitors of 5'UTR Stem-Loop Driven Prion Protein mRNA Translation in H4 Neuroglioblastoma Cells. [Related pubchem assays: 1827 (Project Summary), 1813 (Primary HTS)]; assay type: functional
[12] = luciferase reporter signal reduction – luminescence, H4-C neuroglioblastoma cells, dose response (AID 2458); assay type: functional, cell-based;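 note: H4 neuroglioblastoma cells stably carrying a luciferase reporter gene fusion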
[13] = luciferase reporter signal suppression in cells – H4 neuroglioma cells, luminescence, dose response (AID 1990); assay type: functional, cell-based
[14] = cells; assay type: functional, cell-based
[15] = alpha-synuclein stem-loop luciferase translation blockers – H4 neuroglioma cells, luminescence, confirmation (AID 1988); assay type: functional, cell-based
[16] = viability loss in THP-1 monocytes – THP-1 cells, cytotoxicity control for Vif-APOBEC3G degradation inhibitor project, dose response (AID 1117359); assay type: functional; details: THP-1
[17] = HPDE-C7 pancreatic duct cell viability loss – fluorescence, HTS (AID 430); assay type: functional, cell-based; details: Homo sapiens
[18] = viability loss of HPDE-C7K cells – cell-based, fluorescence, HTS, primary screen (AID 431); assay type: functional; details: Homo sapiens
[19] = molecular target: T2, Mannose-6-phosphate isomerase (Homo sapiens, UniProt P34949); assay: MPI inhibition at elevated mannose 6-phosphate – biochemical, fluorescence intensity, high mannose 6-phosphate, primary screen (AID 1220)
T2 sequence (P34949 whole entry): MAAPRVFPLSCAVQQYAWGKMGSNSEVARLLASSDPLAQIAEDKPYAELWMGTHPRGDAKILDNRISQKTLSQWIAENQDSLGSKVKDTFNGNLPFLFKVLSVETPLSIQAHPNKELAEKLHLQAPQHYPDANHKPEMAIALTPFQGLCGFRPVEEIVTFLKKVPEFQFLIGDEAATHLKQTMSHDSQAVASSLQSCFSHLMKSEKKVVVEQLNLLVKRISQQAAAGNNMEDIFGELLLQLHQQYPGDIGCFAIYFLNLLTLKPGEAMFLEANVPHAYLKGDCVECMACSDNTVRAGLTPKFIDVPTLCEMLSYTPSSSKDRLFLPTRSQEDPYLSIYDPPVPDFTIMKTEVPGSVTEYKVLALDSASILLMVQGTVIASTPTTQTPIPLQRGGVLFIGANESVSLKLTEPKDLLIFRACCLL

[20] = molecular target: DNA dC->dU-editing enzyme APOBEC-3G (Homo sapiens, UniProt Q9HC16); assay: Dose Response confirmation of small molecule APOBEC3G DNA Deaminase Inhibitors via a fluorescence-based single-stranded DNA deaminase assay. [Related pubchem assays (depositor defined):AID493012, AID493028]; assay type: functional
Sequence of DNA dC->dU-editing enzyme APOBEC-3G (Q9HC16 whole entry): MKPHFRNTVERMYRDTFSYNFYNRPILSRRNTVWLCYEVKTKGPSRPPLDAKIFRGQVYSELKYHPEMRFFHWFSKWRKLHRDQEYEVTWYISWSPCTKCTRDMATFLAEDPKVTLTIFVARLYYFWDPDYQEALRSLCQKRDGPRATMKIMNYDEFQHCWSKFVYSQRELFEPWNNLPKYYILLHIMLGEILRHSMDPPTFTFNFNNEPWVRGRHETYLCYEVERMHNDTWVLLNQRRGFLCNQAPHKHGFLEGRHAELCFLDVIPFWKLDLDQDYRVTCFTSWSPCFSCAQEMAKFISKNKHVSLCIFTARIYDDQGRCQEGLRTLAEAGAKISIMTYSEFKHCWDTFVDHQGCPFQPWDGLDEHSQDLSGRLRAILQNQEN

[21] = molecular target: DNA dC->dU-editing enzyme APOBEC-3A (Homo sapiens, UniProt P31941); assay: A3A deaminase inhibition for selectivity – biochemical, dose response (AID 504722); assay type: functional
Sequence of DNA dC->dU-editing enzyme APOBEC-3A (P31941 whole entry): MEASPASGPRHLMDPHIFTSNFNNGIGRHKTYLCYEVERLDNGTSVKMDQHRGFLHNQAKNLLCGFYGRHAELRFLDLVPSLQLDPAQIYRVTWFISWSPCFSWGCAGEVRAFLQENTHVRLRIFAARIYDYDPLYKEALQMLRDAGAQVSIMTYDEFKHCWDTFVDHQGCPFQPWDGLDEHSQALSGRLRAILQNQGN

[22] = tested on: Streptococcus; assay: GAS UMAA2166 growth inhibition – luminescence, BacTiterGlo, counter-screen for streptokinase expression inhibitor project, dose response (AID 1915); assay type: functional, organism-based;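 note: potency for reduction of bacterial viability or growth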
[23] = tested on: Streptococcus sp. 'group A'; assay: Streptococcus pyogenes SK(-)GAS viability under kanamycin – luminescence, BacTiterGlo, confirmation, counter-screen for streptokinase expression inhibitor project, dose response (AID 1900); assay type: functional, organism-based
[24] = molecular target: T3, Caspase-3 (Homo sapiens, UniProt P42574); assay type: functional;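 note: Dose-response selectivity test against caspase-3 for candidate inhibitors of sentrin-specific proteases (SENPs)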
T3 sequence (P42574 whole entry): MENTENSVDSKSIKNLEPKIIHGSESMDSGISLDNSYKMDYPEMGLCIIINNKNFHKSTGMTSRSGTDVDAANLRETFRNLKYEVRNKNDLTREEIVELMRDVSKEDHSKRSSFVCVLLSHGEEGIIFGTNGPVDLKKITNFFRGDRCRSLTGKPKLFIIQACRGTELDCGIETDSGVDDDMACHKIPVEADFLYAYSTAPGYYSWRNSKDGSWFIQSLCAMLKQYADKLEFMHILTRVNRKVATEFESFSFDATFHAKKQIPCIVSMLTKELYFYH

[25] = molecular target: T4, Sentrin-specific protease 6 (Homo sapiens, UniProt Q9GZR1); assay type: functional;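 note: Luminescence-based dose-response confirmatory assay of SENP6 inhibition, following up an ultra-high-throughput screen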
T4 sequence (Q9GZR1 whole entry): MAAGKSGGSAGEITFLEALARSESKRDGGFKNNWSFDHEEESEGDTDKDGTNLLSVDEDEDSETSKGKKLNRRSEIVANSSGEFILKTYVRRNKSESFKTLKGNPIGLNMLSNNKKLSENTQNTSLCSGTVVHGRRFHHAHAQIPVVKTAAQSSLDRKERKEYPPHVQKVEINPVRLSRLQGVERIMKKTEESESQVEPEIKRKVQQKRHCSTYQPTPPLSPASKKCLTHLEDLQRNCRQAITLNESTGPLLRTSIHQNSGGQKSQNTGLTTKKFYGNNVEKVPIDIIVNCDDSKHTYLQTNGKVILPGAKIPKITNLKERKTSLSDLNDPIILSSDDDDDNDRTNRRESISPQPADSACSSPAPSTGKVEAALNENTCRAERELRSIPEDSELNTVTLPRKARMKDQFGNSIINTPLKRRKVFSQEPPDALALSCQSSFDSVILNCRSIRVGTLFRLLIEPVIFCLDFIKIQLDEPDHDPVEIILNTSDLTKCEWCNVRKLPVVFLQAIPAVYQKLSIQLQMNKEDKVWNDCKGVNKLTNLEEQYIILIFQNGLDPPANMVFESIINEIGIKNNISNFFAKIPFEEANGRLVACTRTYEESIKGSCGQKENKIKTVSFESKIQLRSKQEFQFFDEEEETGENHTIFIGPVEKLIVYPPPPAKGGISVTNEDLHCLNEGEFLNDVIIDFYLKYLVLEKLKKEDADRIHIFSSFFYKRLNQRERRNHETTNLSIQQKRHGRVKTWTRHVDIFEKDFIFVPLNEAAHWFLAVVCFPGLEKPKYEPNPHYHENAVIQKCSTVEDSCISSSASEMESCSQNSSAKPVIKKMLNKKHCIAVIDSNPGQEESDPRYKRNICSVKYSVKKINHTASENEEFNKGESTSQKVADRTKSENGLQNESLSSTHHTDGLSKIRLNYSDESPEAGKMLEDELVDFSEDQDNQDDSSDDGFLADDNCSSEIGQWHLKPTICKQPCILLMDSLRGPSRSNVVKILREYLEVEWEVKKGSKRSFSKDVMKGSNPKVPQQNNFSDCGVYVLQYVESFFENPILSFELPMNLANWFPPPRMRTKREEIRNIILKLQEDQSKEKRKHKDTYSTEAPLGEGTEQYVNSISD

[26] = molecular target: T5, Sentrin-specific protease 8 (Homo sapiens, UniProt Q96LD8); assay type: functional;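 note: luminescence read-out of SENP8 inhibition, dose-response confirmation following an ultra-high-throughput screen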
T5 sequence (Q96LD8 whole entry): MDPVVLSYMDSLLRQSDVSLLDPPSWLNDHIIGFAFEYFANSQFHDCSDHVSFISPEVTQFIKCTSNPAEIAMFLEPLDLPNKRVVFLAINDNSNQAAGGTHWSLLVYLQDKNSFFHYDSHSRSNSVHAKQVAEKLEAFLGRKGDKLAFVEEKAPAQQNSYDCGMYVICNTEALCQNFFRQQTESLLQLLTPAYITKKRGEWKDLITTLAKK

With `Cc1cc(C)c(S(=O)(=O)N2CCCCC2CCNC(=O)C(=O)NC2CC2)c(C)c1` (stereo unspecified) the CC50 [1] was 20.3 µM (active) and the IC50 [2] was 4.37 µM (active).
For `O=C(O)c1ccccc1NC(c1ccccc1)c1ccc2cccnc2c1O` (stereo unspecified), the AC50 [3] was 7.23 µM (active).
In the case of `Cc1ccc(NC(S)=NCC23C=CC(O2)C2C(=O)N(c4ccc(C)cc4)C(=O)C23)cc1` (stereo unspecified), the AC50 [3] is reported as 4.6 µM (active).
With `COc1ccccc1OCC(=O)Nn1c(=S)[nH]c2ncccc2c1=O` the IC50 [4] was > 66 µM (inactive) and the IC50 [5] was > 66 µM (inactive).
For `Cc1ccc2[nH]c(C)c(/C=N/Nc3nc4ccccc4s3)c2c1`, the EC50 [6] was 19.7 µM (active), the EC50 [7] was 2.24 µM (active) and the CC50 [1] was 14.6 µM (active). The EC50 [8] was > 60 µM (inconclusive), the AC50 [3] was 5.3 µM (active) and the EC50 [9] was 18 µM (active).
In the case of `CN(C)c1oc(-c2ccccc2[N+](=O)[O-])nc1C#N`, the IC50 [4] is reported as > 66 µM (inactive) and the IC50 [5] is reported as > 66 µM (inactive).
With `c1ccc(-c2noc(-c3ccc4ccccc4c3)n2)cc1` the EC50 [10] was 0.636 µM (active), the EC50 [11] was 8.76 µM (active) and the EC50 [12] was 0.974 µM (active). The EC50 [13] was < 0.1 µM (active), the EC50 [14] was 0.694 µM (inconclusive) and the EC50 [15] was < 0.1 µM (active).
In the case of `COc1cc(SC)ccc1C(=O)Nc1c(C)cccc1C`, the CC50 [16] is reported as > 40 µM (active).
In the case of `CCCc1cc(-c2[nH]ncc2-c2ccc3c(c2)OCCCO3)c(O)cc1O`, the EC50 [17] is reported as 8.22 µM (active) and the EC50 [18] is reported as 8.05 µM (active).
In the case of `COc1ccc(OCc2n[nH]c(=S)n2N)cc1`, the IC50 [19] is reported as 21.4 µM (active), the IC50 [20] is reported as 7.1 µM (active) and the IC50 [21] is reported as > 100 µM (inactive).
With `Cc1ccc(N2C(=O)C3C4C=CC(CN=C(S)N5CCN(c6ccccc6)CC5)(O4)C3C2=O)cc1` (stereo unspecified) the AC50 [3] was 14.9 µM (active).
In the case of `Cc1[nH]n(C2=NCCS2)c(=O)c1N=Nc1ccccc1`, the IC50 [4] is reported as > 66 µM (inactive) and the IC50 [5] is reported as > 66 µM (inactive).
With `C=CCN1C(=O)NC(=O)/C(=C(/CC)Nc2ccc(N(CC)CC)cc2)C1=O` the EC50 [17] was > 20 µM (not active), the EC50 [22] was 2.03 µM (active) and the EC50 [23] was 1.23 µM (active). The EC50 [18] was > 20 µM (not active).
In the case of `Cc1ccc(Cl)c2sc(NC(=O)C3=COCCO3)nc12`, the IC50 [24] is reported as 63.4 µM (active), the IC50 [25] is reported as 13.1 µM (active) and the IC50 [26] is reported as > 100 µM (inactive).
